Laboratory results as given in ChEMBL document CHEMBL1157154, “The synthesis of 5-substituted ring E analogs of methyllycaconitine via the Suzuki-Miyaura cross-coupling reaction” (Bioorg Med Chem, 2008).

Tests used:
[1] = Inhibition of nicotin-stimulated neurosecretion in bovine adrenal gland; type: functional, tissue-based, Bos taurus, Adrenal tissue
[2] = target: Neuronal acetylcholine receptor subunit alpha-7 (Bos taurus) (UniProt P54131); assay: Displacement of [125I]alpha-bungarotoxin from bovine alpha7 nAChR expressed in HEK293 cells at 10 uM; type: cell-based
[3] = target: Neuronal acetylcholine receptor subunit alpha-3 (Bos taurus) (UniProt Q07263); assay: Displacement of [3H]epibatidine from bovine […] nAChR expressed in HEK293 cells at 10 uM; type: cell-based
[4] = target: Neuronal acetylcholine receptor subunit alpha-7 (Bos taurus) (UniProt P54131); assay: Displacement of [125I]alpha-bungarotoxin from bovine alpha7 nAChR expressed in HEK293 cells at 1.0 uM; type: cell-based
[5] = target: Neuronal acetylcholine receptor subunit alpha-3 (Bos taurus) (UniProt Q07263); assay: Displacement of [3H]epibatidine from bovine […] nAChR expressed in HEK293 cells at 1.0 uM; type: cell-based
[6] = target: Neuronal acetylcholine receptor subunit alpha-7 (Bos taurus, UniProt P54131); assay: Displacement of [125I]alpha-bungarotoxin from bovine alpha7 nAChR expressed in HEK293 cells; type: cell-based
Sequence of Neuronal acetylcholine receptor subunit alpha-7 (P54131 whole entry): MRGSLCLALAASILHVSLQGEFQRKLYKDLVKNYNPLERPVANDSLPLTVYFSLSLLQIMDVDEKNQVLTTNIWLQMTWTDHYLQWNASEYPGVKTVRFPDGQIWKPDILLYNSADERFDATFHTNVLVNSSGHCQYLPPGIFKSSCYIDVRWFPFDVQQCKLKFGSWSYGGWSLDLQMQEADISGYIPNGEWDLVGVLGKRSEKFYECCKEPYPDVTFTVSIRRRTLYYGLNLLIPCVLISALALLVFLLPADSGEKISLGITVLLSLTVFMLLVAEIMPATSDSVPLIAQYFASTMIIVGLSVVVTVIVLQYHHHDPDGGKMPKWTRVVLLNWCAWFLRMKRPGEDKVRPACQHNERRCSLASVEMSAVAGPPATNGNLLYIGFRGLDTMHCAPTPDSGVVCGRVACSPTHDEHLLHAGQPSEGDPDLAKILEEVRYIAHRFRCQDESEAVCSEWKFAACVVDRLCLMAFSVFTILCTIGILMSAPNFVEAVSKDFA

Sequence of Neuronal acetylcholine receptor subunit alpha-7 (Bos taurus) (P54131 whole entry): as above
Sequence of Neuronal acetylcholine receptor subunit alpha-3 (Bos taurus) (Q07263 whole entry): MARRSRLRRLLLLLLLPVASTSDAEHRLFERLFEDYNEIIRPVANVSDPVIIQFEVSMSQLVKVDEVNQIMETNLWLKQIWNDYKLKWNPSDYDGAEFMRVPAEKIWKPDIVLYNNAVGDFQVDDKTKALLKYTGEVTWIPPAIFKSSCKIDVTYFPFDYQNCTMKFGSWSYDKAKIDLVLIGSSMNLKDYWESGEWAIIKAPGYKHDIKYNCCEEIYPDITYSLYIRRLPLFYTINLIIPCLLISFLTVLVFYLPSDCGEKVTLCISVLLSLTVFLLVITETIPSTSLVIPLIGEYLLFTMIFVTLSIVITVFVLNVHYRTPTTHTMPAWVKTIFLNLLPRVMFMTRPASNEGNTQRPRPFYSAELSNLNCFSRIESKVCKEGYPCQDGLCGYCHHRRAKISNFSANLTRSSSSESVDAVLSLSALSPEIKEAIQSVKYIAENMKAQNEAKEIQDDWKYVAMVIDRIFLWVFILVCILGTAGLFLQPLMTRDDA

Row | Structure (SMILES) | Activity [2] [%] | Activity [3] [%] | further results
1 | CCCCCC[C@H]1C[C@@H](COC(=O)c2ccccc2N2C(=O)CC(C)C2=O)CN(CCCc2ccccc2)C1 (stereo not given in full) | 92.2 | 105 | IC50 [1]: 2 µM
2 | CC1CC(=O)N(c2ccccc2C(=O)OC[C@@H]2C[C@H](CCc3ccccc3)CN(CCCc3ccccc3)C2)C1=O (stereo not given in full) | 98.8 | 103 | –
3 | CC1CC(=O)N(c2ccccc2C(=O)OC[C@@H]2C[C@H](c3ccccc3)CN(CCCc3ccccc3)C2)C1=O (stereo not given in full) | 94.3 | 86.8 | –
4 | CC1CC(=O)N(c2ccccc2C(=O)OC[C@@H]2C[C@H](C3CCCCC3)CN(CCCc3ccccc3)C2)C1=O (stereo not given in full) | 103 | – | –
5 | CCN1C[C@]2(COC(=O)c3ccccc3N3C(=O)C[C@H](C)C3=O)CC[C@H](OC)[C@@]34[C@@H]5C[C@H]6[C@H](OC)[C@@H]5[C@](O)(C[C@@H]6OC)[C@](O)([C@@H](OC)[C@H]23)[C@@H]14 | – | – | Activity [4]: 7.5%; Activity [5]: 50.1%
6 | CC1CC(=O)N(c2ccccc2C(=O)OC[C@@H]2C[C@H](CC3CCCCC3)CN(CCCc3ccccc3)C2)C1=O (stereo not given in full) | 92.6 | – | –
7 | CC1CC(=O)N(c2ccccc2C(=O)OC[C@@H]2CCCN(CCCc3ccccc3)C2)C1=O (stereo not given in full) | – | – | IC50 [6]: 177 µM
8 | CC1CC(=O)N(c2ccccc2C(=O)OC[C@@H]2C[C@H](CCCCCO[Si](C)(C)C(C)(C)C)CN(CCCc3ccccc3)C2)C1=O (stereo not given in full) | 88.8 | 118 | IC50 [1]: 2 µM
